# In patent publication US20100256214A1, “EPH RECEPTOR LIGANDS AND METHODS OF USE” (Burnham Institute for Medical Research, priority 2009, published 2010):
# Assays:
# [1] = system: PC3 cells; experiment: PC3 cell retraction assay; type: cell-based
# Method: FIGS. 9A-9G. A. PC3 cells pretreated for 15 min with the indicated concentrations of compound 1 or compound 2 were stimulated with 0.5 μg/mL ephrin-A1 Fc (+) or Fc as a control (−) for 20 min in the continued presence of the compounds. EphA2 immunoprecipitates were probed with anti-phosphotyrosine antibody (PTyr) and reprobed for EphA2. C indicates immunoprecipitations performed with control antibodies. B. Histogram showing the levels of EphA2 phosphorylation normalized to the amount of immunoprecipitated EphA2. Error bars indicate standard error from 3 experiments. Receptor phosphorylation levels were compared with those in the ephrin-stimulated cells by one-way ANOVA and Dunnett's post test. *P<0.05 and *P<0.01. C. PC3 cells stimulated with compound 1 as in (A) were stained with rhodamine-phalloidin to label actin filaments and DAPI to label nuclei. DMSO was used as a control (0 μM). D. Histogram showing the mean area of the cells normalized to the value obtained for the Fc stimulated cells. E. Histogram showing the mean percentage of retracting cells. Cells having rounded shape and area less than 20% of the mean value obtained for the Fc stimulated cells were scored as retracting. Error bars in D and E indicate standard error from 3 experiments. F-H. The same experiments as in (C-E) were performed using compound 2. The areas occupied by the cells and the percentage of cell retraction under different conditions were compared to those in the Fc control condition by one-way ANOVA and Dunnett's post test. *P<0.05 and **P<0.01. Scale bars in (C) and (F)=50 μm.
# PC3 Cell Retraction Assay—PC3 cells were plated on glass coverslips and grown in RPMI 1640 medium (Mediatech, Inc, Herndon, Va.) with 10% FBS and Pen/Strep. After 17 hours the cells were starved for 3 hours in 0.5% FBS in DMEM and then incubated for 40 min with the compounds or DMSO, before stimulation for 10 min with 0.5 μg/mL of ephrin-A1 Fc or Fc as a control. The cells were fixed in 4% formaldehyde in PBS, permeabilized in 0.5% Triton X-100 in TBS and stained with rhodamine-conjugated phalloidin (Invitrogen, Carlsbad, Calif.) and DAPI. Cells were photographed under a fluorescence microscope and cell area was measured in a blinded manner using ImageJ software. Cells having rounded shape and area equal or below 20% of the area of Fc control-treated cells were considered as retracting.
# [2] = molecular target: EphA2 (Homo sapiens, UniProt P29317); experiment: ELISA, EphA2-ephrin-A5 binding; conditions: assuming competitive inhibition; read-out: Ki for inhibition of EphA2-ephrin-A5 binding (Cheng-Prusoff)
# Chain of EphA2 (P29317 25-534 limits assumed, species assumed): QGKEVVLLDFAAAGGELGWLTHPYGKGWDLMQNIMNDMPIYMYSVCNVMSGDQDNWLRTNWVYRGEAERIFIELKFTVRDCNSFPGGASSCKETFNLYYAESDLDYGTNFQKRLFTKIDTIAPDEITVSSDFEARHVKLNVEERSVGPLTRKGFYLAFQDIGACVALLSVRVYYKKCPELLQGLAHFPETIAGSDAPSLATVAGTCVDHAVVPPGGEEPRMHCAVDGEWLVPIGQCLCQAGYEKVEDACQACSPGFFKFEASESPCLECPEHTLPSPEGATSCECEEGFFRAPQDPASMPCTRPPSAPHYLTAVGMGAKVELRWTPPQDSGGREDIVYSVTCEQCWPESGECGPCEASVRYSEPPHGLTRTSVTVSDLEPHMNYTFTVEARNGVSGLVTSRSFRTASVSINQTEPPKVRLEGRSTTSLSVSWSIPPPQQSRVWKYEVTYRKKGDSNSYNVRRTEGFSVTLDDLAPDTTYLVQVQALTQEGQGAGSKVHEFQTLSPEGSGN
# Method: ELISA Assays and K, Determination—Protein A-coated wells (Pierce Biotecnology, Rockford, Ill.) were used to immobilize ephrin Fc fusion proteins (R&D Systems, Minneapolis, Minn.). Compounds at different concentrations were incubated with EphA4 AP (Cheng and Flanagan, (1994) Cell 79(1), 157-168) or EphA2 AP (Koolpe et al. (2002) J Biol Chem 277(49), 46974-46979) for 3 hours. Alternatively, Eph receptor Fc fusion proteins were immobilized on protein A-coated wells and ephrin-A5 AP (Menzel et al. (2001) Developmental Biology 230(1), 74-88) or ephrin-B2 AP (GeneHunter, Nashville, Tenn.) were added with the compounds. The amount of bound AP-fusion protein was quantified using pNPP as the substrate. […]
# To calculate the inhibition constant (KO values, the binding of ephrin-A5 AP to EphA4 Fc immobilized on protein A-coated wells was measured in the absence and in the presence of the compounds at different concentrations. Each data set was fitted to the Michaelis-Menten equation: B=Bmax [S]/(KD+[S]), where [S] is the concentration of ephrin AP fusion protein and KD is the dissociation constant observed in the absence or in the presence of the compound, using non linear regression and the program GraphPad (Prism). To evaluate whether the inhibition is competitive, noncompetitive or uncompetitive the KD and Bmax values were determined at different compound concentrations. […]
# [3] = system: HT22 neuronal cells; experiment: MTT cytotoxicity assay; type: cell-based, mouse; conditions: concentrations up to 400 μM for several days
# Method: FIG. 7. HT22 neuronal cells were grown in the presence of the indicated concentrations of compounds 1 and 2 for 1, 2 and 3 days. Only DMSO was used in the “0 μM” sample, as a control. After addition of MTT, absorbance was measured at 570 nm to determine the levels of viable cells present. The histograms show the absorbance obtained for each condition normalized to the absorbance in the absence of the compounds. Error bars represent standard error from 3 measurements.
# MTT Assay—The cytotoxicity of the compounds was measured using the 3-(4,5-dimethylthiazol-2-yl)-2,5-diphenyltetrazolium bromide (MTT) colorimetric assay. Cells were seeded in 96-well plates and treated with compounds or DMSO starting 3, 2 or 1 day before they reached 100% confluency. For the assay, MTT (Sigma-Aldrich, St. Louis, Mo.) was added at a final concentration of […] and incubated with the cells for 3 hours. The resulting formazan crystals were then solubilized by addition of 100% DMSO. The absorbance in each well was measured at 570 nm using an ELISA plate reader. The results were expressed as the ratio of the absorbance of the cells treated with the compounds and left untreated.
SMILES,cell morphology in the absence of ephrin treatment [1],decrease in cell spreading caused by ephrin-A1 Fc [1],increase in the percentage of rounded cells caused by ephrin-A1 Fc [1],Ki [2],"toxicity, cell viability by MTT [3]"
"Cc1ccc(C)n1-c1ccc(C(=O)O)c(O)c1 [compound 1, 4-(2,5-dimethyl-pyrrol-1-yl)-2-hydroxy-benzoic acid]",did not affect,blocked,blocked,11 to 14 µM,did not reveal any toxicity
"Cc1ccc(C)n1-c1ccc(O)c(C(=O)O)c1 [compound 2, 5-(2,5 dimethyl-pyrrol-1-yl)-2-hydroxy-benzoic acid]",did not affect,blocked,blocked,10 to 13 µM,did not reveal any toxicity
